Values of other authors as cited in US20250049835A1, “COMPOSITIONS FOR ALTERING CYCLIC ADP-RIBOSE SECONDARY MESSENGER SIGNALLING” (Yeda Research and Development Co. Ltd., priority 2022, published 2025).

Target: T1, Bacillus cereus MSX-D12 ThsA enzyme (Bacillus cereus, UniProt J8G6Z1)
T1 construct: The reporter enzyme ThsA was expressed and purified as described previously; made in house
T1 sequence (J8G6Z1 1-476): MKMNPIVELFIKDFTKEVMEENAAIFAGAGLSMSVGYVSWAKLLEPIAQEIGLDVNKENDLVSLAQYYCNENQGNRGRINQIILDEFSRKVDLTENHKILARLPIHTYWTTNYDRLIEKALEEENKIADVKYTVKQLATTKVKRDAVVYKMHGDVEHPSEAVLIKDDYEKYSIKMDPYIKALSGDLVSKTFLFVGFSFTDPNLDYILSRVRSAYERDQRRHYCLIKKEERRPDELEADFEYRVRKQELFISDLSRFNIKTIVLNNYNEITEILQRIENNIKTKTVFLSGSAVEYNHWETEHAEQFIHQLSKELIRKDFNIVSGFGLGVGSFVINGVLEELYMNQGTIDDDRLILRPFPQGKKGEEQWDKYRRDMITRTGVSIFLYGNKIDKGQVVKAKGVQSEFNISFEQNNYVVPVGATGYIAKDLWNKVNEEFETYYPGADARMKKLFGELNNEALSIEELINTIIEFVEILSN
Settings: previously shown

Compound: Nc1ncnc2c1ncn2[C@@H]1O[C@@H]2COP(=O)(O)OP(=O)(O)OC[C@H]3O[C@@H](OC1C2O)C(O)C3O (stereo partly shown) [1′-2′ gcADPR]
- Activation of ThsA by cADPR isomer produced by plant TIR proteins: can activate the Theoris effector ThsA
